This is an account of results in PMC3504309 (ChemMedChem, 2011).

For this assay, the system named is human K562 cells. Nature of the assay: Human K562 growth inhibition assay. The class given is cell-based. As to conditions: for Antiproliferative effect on growth of human K562 cells (in words): 333 μM was the highest concentration tested; for IC50: Homo sapiens, K562, 48 h, read-out: Growth inhibition of human K562 cells IC50.

Consider `CO[C@@H](C(=O)NCC1CCCN(C(=O)C(C)C)C1)[C@H](O)[C@@H](O)[C@H](O)/C=C/C(C)(C)C` (stereo partly drawn) [Compound 4, (2R,3R,4S,5R,E)-3,4,5-trihydroxy-N-((1-isobutyrylpiperidin-3-yl)methyl)-2-methoxy-8,8-dimethylnon-6-enamide], for which the “Antiproliferative effect on growth of human K562 cells (in words)” value (“Antiproliferative effect on growth” for short) was “no or weak activity” and the 50% inhibitory concentration (IC50) (usually the concentration needed to halve the response being measured) is > 333 µM.

`CO[C@@H](C(=O)NCC1CCCN(C(=O)C2CC2)C1)[C@H](O)[C@@H](O)[C@H](O)/C=C/C(C)(C)C` (stereo partly drawn) [Compound 5, (2R,3R,4S,5R,E)-N-((1-(cyclopropanecarbonyl)piperidin-3-yl)methyl)-3,4,5-trihydroxy-2-methoxy-8,8-dimethylnon-6-enamide]: the “Antiproliferative effect on growth” value is listed as “no or weak activity” and the IC50 was > 333 µM.

Turning to `CO[C@@H](C(=O)NCCC(c1ccccc1)c1ccco1)[C@H](O)[C@@H](O)[C@H](O)/C=C/C(C)(C)C` (stereo partly drawn) [Compound 6, (2R,3R,4S,5R,E)-N-(3-(furan-2-yl)-3-phenylpropyl)-3,4,5-trihydroxy-2-methoxy-8,8-dimethylnon-6-enamide], the “Antiproliferative effect on growth” value is “low and reproducible activity”; the IC50 worked out at 79.6 µM.

On to `CO[C@@H](C(=O)NCCC(c1ccc(F)cc1)c1ccco1)[C@H](O)[C@@H](O)[C@H](O)/C=C/C(C)(C)C` (stereo partly drawn) [Compound 7, (2R,3R,4S,5R,E)-N-(3-(4-fluorophenyl)-3-(furan-2-yl)propyl)-3,4,5-trihydroxy-2-methoxy-8,8-dimethylnon-6-enamide], for which the “Antiproliferative effect on growth” value was “low and reproducible activity”; the IC50 is 96.5 µM.

As for `CO[C@@H](C(=O)NC1Cc2ccccc2C1)[C@H](O)[C@@H](O)[C@H](O)/C=C/C(C)(C)C` [Compound 8, (2R,3R,4S,5R,E)-N-(2,3-dihydro-1H-inden-2-yl)-3,4,5-trihydroxy-2-methoxy-8,8-dimethylnon-6-enamide], the “Antiproliferative effect on growth” value is on record as “no or weak activity” and the IC50 is > 333 µM.

As for `CO[C@@H](C(=O)NCC(N)=O)[C@H](O)[C@@H](O)[C@H](O)/C=C/C(C)(C)C` [Compound 9, (2R,3R,4S,5R,E)-N-(2-amino-2-oxoethyl)-3,4,5-trihydroxy-2-methoxy-8,8-dimethylnon-6-enamide], the “Antiproliferative effect on growth” value is “no or weak activity” and the half-maximal inhibitory concentration (IC50) was > 333 µM.

Consider `CO[C@@H](C(=O)NCCOc1c(C)cc(C)cc1C)[C@H](O)[C@@H](O)[C@H](O)/C=C/C(C)(C)C` [Compound 10, (2R,3R,4S,5R,E)-3,4,5-trihydroxy-N-(2-(mesityloxy)ethyl)-2-methoxy-8,8-dimethylnon-6-enamide], for which the “Antiproliferative effect on growth” value was “low and reproducible activity”; the half-inhibitory concentration (IC50) came to 37.8 µM.
